In patent US20260373226A1, “METHODS AND COMPOSITIONS FOR THE TREATMENT OF NEURODEGENERATIVE DISEASE” (Stealth BioTherapeutics Inc., priority 2022, published 2026):

Key:
[1] = SBT-272 level in brain homogenates after ET-1 injection; format: in vivo; conditions: rat hemibrain, 24 hours after final treatment
From the text: FIG. 2B is a schematic showing the experimental design. Dotted lines indicate left and right subsection of hemibrain used for RCR and PK analysis (FIG. 2B). FIG. 2C: individual respiratory control ratios (RCR) per animal (n=8 per group) from the stroke-induced subsection of the right hemisphere. FIG. 2D: SBT-272 level in the brain homogenates from the same hemisphere after ET-1 injection. ET1=endothelin-1, vasoconstrictive peptide (*P<0.05, Kruskal-Wallis followed by Dunn's test).
Improved respiratory control ratio after cerebral ischemia reperfusion. To assess its pharmacodynamic effect on mitochondrial function in the brain, SBT-272 was tested in a rat model of acute ischemia. The mitochondrial effects of SBT-272 were determined using the respiratory control ratio (RCR), the ratio of coupled respiration (supporting oxidative phosphorylation) to respiratory rate in the absence of ADP (“leak” respiration). The high mitochondrial RCR in sham-treated animals (9.0±0.1) confirmed that the mitochondrial were healthy, as the majority of respiration accounted for replenishing cellular ATP levels (FIG. 2C).

[2] = tested on: models of neurodegeneration; test: In vitro effect concentration (in vitro-in vivo correlation); format: cell-based; conditions: FIG. 3A
From the text: See Guatam M., Platform presentation. NEALS, 2022. […] See Keefe, et al. (2019); Gautam, et al. (2022); Guatam, et al. (2021). Gautam, et al., SBT-272 improved mitochondria structure and function and preserved upper motor neurons with TDP-43 pathology, Platform poster presentation, presented at NEALS poster session (2022); Bido, et al. (2021); Silva, et al. (2022); and Zariwala, et al., Effects of the mitochondria-targeting small molecule SBT-272 in the R6/2 transgenic mice of Huntington's Disease, Poster presented at Keystone Symposia poster Session, 2022.

[3] = Time-concentration profile in plasma, CSF and brain, rat versus nonhuman primate; format: in vivo; conditions: FIGS. 4A and 4C; equivalent dose levels, single or repeated SC dosing
Description: Pharmacokinetic profile of SBT-272 in rat plasma, CSF, and brain (for FIG. 4A). Briefly, as described elsewhere herein, male Sprague-Dawley (SD) rats were subcutaneously administered a single, 10 mg/kg dose of SBT-272. Plasma, CSF, and brain (microdialysis) samples were obtained at the time points indicated on FIG. 4A and analyzed for SBT-272 concentration by HPLC with tandem mass spectrometry (HPLC-MS/MS).
Pharmacokinetic profile of SBT-272 in nonhuman primate plasma, CSF, and brain. The objective of this study was to determine the pharmacokinetic profile of SBT-272 in CSF and plasma when delivered by subcutaneous (SC) injection for 10 days to cynomolgus monkeys. SBT-272 solution was administered daily by SC injection for 10 days. The following parameters and endpoints were evaluated in this study: mortality, clinical observations, body weights, pharmacokinetic samples (CSF and plasma), and selected tissue collection. There was no mortality during the study. […] Additional details regarding the experimental protocol are provided below.

[4] = Steady state PK in plasma, CSF, brain after 5 daily s.c. doses in rats; format: in vivo, male Sprague-Dawley rat; conditions: rat, 10 mg/kg s.c., 5 daily doses
Description: Pharmacokinetic profile of SBT-272 in rat plasma, CSF, and brain (for FIG. 5A). The objective of this study was to evaluate the pharmacokinetics of SBT-272 in microdialysate from the prefrontal cortex (PFC) and striatum (STR), and in plasma and CSF of freely-moving adult male Sprague-Dawley rats. The experiments and the analysis were performed at Charles River Laboratories Den Bosch B.V., location Groningen (Groningen, the Netherlands).
Test items. Test compound was SBT-272. The molecular weight of SBT-272 is 607.75 g/mol in the salt-free form, and 717.13 g/mol in the salt form.
In vivo experiments: Animals. A total of six male Sprague-Dawley rats (309-329 g; CRL Sulzfeld, Germany) were used for the experiments. The experiments were conducted in strict accordance with the Guide for the Care and Use of Laboratory Animals (National Research Council 2011) and were in accordance with European Union directive 2010/63 and the Dutch law. The experiments were carried out under license number AVD23600202011187, issued by the national committee for licensing of animal experiments (Centrale Commissie Dierproeven) and were approved by the Animal Care and Use Committee (Instantie voor Dierenwelzijn) of Charles River Discovery Groningen.
Following arrival, animals were housed in groups of 5 in polycarbonate cages (56 X 33×20 cm) with wire mesh top in a temperature (22±2 °C) and humidity (55±15%) controlled environment on a 12 hour light cycle (07.00-19.00 h). After surgery, animals were housed individually (cages 30×30×40 cm). Standard diet (A04 mod. R/M-M, Ssniff, Germany) and domestic quality mains water were available ad libitum.
In vivo experiments: Surgery. Animals were anesthetized using isoflurane (2% and 800 mL/min 02). Before surgery, carprofen (5 mg/kg, s.c.) was administered for peri- and post-operative analgesia. A mixture of bupivacaine and epinephrine was applied to the incision site and periosteum of the skull for local analgesia.
In vivo experiments: Microdialysis probe implantation. Each animal was placed in a stereotaxic frame (Kopf instruments, USA). […]

Cc1cc(O)cc(C)c1C[C@H](NC(=O)[C@H](N)CCCNC(=N)N)C(=O)N[C@@H](CCCCN)c1nc(Cc2ccccc2)no1 [SBT-272, (R)-2-amino-N—((S)-1-(((S)-5-amino-1-(3-benzyl-1,2,4-oxadiazol-5-yl)pentyl)amino)-3-(4-hydroxy-2,6-dimethylphenyl)-1-oxopropan-2-yl)-5-guanidinopentanamide]
brain concentration, dose relation [1]: dose proportional
optimal in vitro effects, concentration [2]: 10 to 100 nM
time-concentration profile in plasma, CSF, and brain, rat versus nonhuman primate [3]: very similar in rat and nonhuman primate
Kp ([4]; brain, sc, read-out: brain:plasma ratio): 178
brain:CSF ratio [4]: 182
plasma:CSF ratio [4]: 1.03
